From patent US9926264B2, “Phenylcarbamate derivatives as formyl peptide receptor modulators” (Allergan, Inc., priority 2013, dated 2018)

Target: T1, FPR2 (Homo sapiens, UniProt P25090)
T1 construct: expressed in transfected cells; host or cells: CHO-Gα16 cells
T1 sequence (P25090 1-351): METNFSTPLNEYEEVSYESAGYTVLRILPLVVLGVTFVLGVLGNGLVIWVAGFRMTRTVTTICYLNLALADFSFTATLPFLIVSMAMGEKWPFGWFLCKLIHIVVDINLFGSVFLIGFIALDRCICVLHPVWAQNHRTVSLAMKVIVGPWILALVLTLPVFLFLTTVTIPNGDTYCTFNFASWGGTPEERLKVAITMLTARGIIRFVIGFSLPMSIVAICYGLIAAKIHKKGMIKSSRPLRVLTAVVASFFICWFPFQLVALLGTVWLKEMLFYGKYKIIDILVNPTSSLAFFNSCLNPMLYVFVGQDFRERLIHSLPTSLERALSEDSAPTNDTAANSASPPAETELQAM
Test: compound-induced calcium activity on FLIPR Tetra in CHO-Gα16 cells stably expressing FPR2
Assay type: cell-based
Conditions: for Emax: efficacy value in brackets after EC50, read-out: FPR2 Gα16-CHO (% eff); for EC50: tested 0.61 to 10,000 nM
Experimental: CHO-Gα16 cells stably expressing FPR2 were cultured in (F12, 10% FBS, 1% PSA, 400 μg/ml geneticin and 50 μg/ml hygromycin) and HEK-Gqi5 cells stable expressing FPR1 were cultured in (DMEM high glucose, 10% FBS, 1% PSA, 400 μg/ml geneticin and 50 μg/ml hygromycin). In general, the day before the experiment, 18,000 cells/well were plated in a 384-well clear bottom poly-D-lysine coated plate. The following day the screening compound-induced calcium activity was assayed on the FLIPR^Tetra. The drug plates were prepared in 384-well microplates using the EP3 and the MultiPROBE robotic liquid handling systems. Compounds were tested at concentrations ranging from 0.61 to 10,000 nM. Results are expressed as EC50 (nM) and % efficacy values.

| SMILES | Emax | EC50 |
| --- | --- | --- |
| CC(C)C[C@H](OC(=O)Nc1ccc(Br)cc1)C(=O)NCCNC(=O)OC(C)(C)C [Compound 33, (1S)-1-[({2-[(tert-butoxycarbonyl)amino]ethyl}amino)carbonyl]-3-methylbutyl (4-bromophenyl)carbamate] | 103% | 397 nM |
| CC(C)C[C@H](OC(=O)Nc1ccc(Br)cc1)C(=O)N(CC(=O)OC(C)(C)C)C(C)C [Compound 10, tert-Butyl {[(2S)-2-{[(4-Bromophenyl)carbamoyl]oxy}-4-methylpentanoyl](propan-2-yl)amino}acetate] | 103% | 11 nM |
| CC(C)C[C@H](OC(=O)Nc1ccc(Br)cc1)C(=O)NCCNS(=O)(=O)N(C)C [Compound 42, (1S)-1-{[(2-{[(Dimethylamino)sulfonyl]amino}ethyl)amino]carbonyl}-3-methylbutyl (4-bromophenyl)carbamate] | 99% | 125 nM |
| CC(=O)OCCNC(=O)[C@H](CC(C)C)OC(=O)Nc1ccc(C(F)(F)F)cc1 [Compound 18, 2-{[(2S)-4-Methyl-2-({[4-(trifluoromethyl)phenyl]carbamoyl}oxy)pentanoyl]amino}ethyl acetate] | 89% | 195 nM |
| CCOP(=O)(CNC(=O)[C@H](CC(C)C)OC(=O)Nc1ccc(Br)cc1)OCC [Compound 8, Diethyl ({[(2S)-2-{[(4-bromophenyl)carbamoyl]oxy}-4-methylpentanoyl]amino}methyl)phosphonate] | 100% | 1.8 nM |
| CC(C)C[C@H](OC(=O)Nc1ccc(C(F)(F)F)cc1)C(=O)OC(C)(C)C [Intermediate 2, tert-Butyl (2S)-4-Methyl-2-({[4-(trifluoromethyl)phenyl]carbamoyl}oxy)pentanoate] | 56% | 10000 nM |
| CCN(CC(=O)OC(C)(C)C)C(=O)[C@H](CC(C)C)OC(=O)Nc1ccc(C(F)(F)F)cc1 [Compound 13, tert-Butyl {Ethyl[(2S)-4-methyl-2-({[4-(trifluoromethyl)phenyl]carbamoyl}oxy)pentanoyl]amino}acetate] | 99% | 16.6 nM |
| CC(C)C[C@H](OC(=O)Nc1ccc(Br)cc1)C(=O)N(C)CCO [Compound 4, (2S)-1-[(2-Hydroxyethyl)(methyl)amino]-4-methyl-1-oxopentan-2-yl (4-bromophenyl)carbamate] | 97% | 59 nM |
| CC(C)C[C@H](OC(=O)Nc1ccc(C(F)(F)F)cc1)C(=O)N(CC(=O)OC(C)(C)C)C(C)C [Compound 30, tert-Butyl (Isopropyl{(2S)-4-methyl-2-[({[4-(trifluoromethyl)phenyl]amino}carbonyl)oxy]pentanoyl}amino)acetate] | 76% | 301 nM |

Continued by falling EC50, values first:

| Emax | EC50 | SMILES |
| --- | --- | --- |
| 85% | 8.6 nM | CC(C)C[C@H](OC(=O)Nc1ccc(Br)cc1)C(=O)O [Intermediate 3, (2S)-2-{[(4-Bromophenyl)carbamoyl]oxy}-4-methylpentanoic acid] |
| 97% | 8 nM | CCN(CC(=O)OC(C)(C)C)C(=O)[C@H](CC(C)C)OC(=O)Nc1ccc(Br)cc1 [Compound 11, tert-Butyl {[(2S)-2-{[(4-Bromophenyl)carbamoyl]oxy}-4-methylpentanoyl](ethyl)amino}acetate] |
| 96% | 3.6 nM | CC(C)C[C@H](OC(=O)Nc1ccc(C(F)(F)F)cc1)C(=O)NCc1nnn[nH]1 [Compound 15, (2S)-4-methyl-1-oxo-1-[(1H-tetrazol-5-ylmethyl)amino]pentan-2-yl [4-(trifluoromethyl)phenyl]carbamate] |
| 95% | 1.3 nM | O=C(O)CNC(=O)[C@H](Cc1ccccc1)OC(=O)Nc1ccc(Br)cc1 [Compound 40, {[(2S)-2-({[(4-bromophenyl)amino]carbonyl}oxy)-3-phenylpropanoyl]amino}acetic acid] |
| 97% | 0.94 nM | CC(C)C[C@H](OC(=O)Nc1ccc(C(F)(F)F)cc1)C(=O)N(C)CC(=O)O [Compound 25, {Methyl[(2S)-4-methyl-2-({[4-(trifluoromethyl)phenyl]carbamoyl}oxy)pentanoyl]amino}acetic acid] |
| 101% | 0.84 nM | CC(C)C[C@H](OC(=O)Nc1ccc(Br)cc1)C(=O)NCC(=O)O [Compound 19, {[(2S)-2-{[(4-Bromophenyl)carbamoyl]oxy}-4-methylpentanoyl]amino}acetic acid] |
| 95% | 0.3 nM | CCN(Cc1nnn[nH]1)C(=O)[C@H](CC(C)C)OC(=O)Nc1ccc(Br)cc1 [Compound 31, (1S)-1-{[ethyl(1H-tetrazol-5-ylmethyl)amino]carbonyl}-3-methylbutyl (4-bromophenyl)carbamate] |
